From US10947241B2, “Phenyl phthalazine derivative, method for the preparation thereof, and pharmaceutical composition comprising the same” (Seoul National University Hospital, priority 2016, dated 2021) come the findings set out here.

For this assay, the target named is hResistin (Homo sapiens (Human), UniProt Q9HD89). Briefly: Evaluation of the ability to inhibit TNF-α secretion by hResistin (THP-1 cells, ELISA). In kind it is cell-based. As to conditions: for inhibition at 5 µM: inhibition of TNF-α secretion by hResistin in THP-1 cells; for IC50: THP-1 human monocyte cell line, human recombinant Resistin. How it is done:
Experimental Example: Evaluation of the Ability to Inhibit TNF-α Secretion by hResistin
Using THP-1 (human monocyte) cell line and ELISA system, the abilities to inhibit TNF-α secretion by hResistin (IC50) were evaluated for the compounds prepared in the above examples. The compounds target hResistin, and the abilities of the compounds to inhibit TNF-α secretion by human recombinant Resistin in human monocyte (THP-1) were evaluated. The abilities to inhibit TNF-α secretion were assessed by ELISA quantifying the amount of antibody with the enzyme as a marker using an antigen-antibody reaction.
Specifically, the cultured cells were spun down at 1,500 rpm for 2 minutes, the supernatant was removed and then the cells were re-suspended in 10 mL of complete RPMI-1640 medium. After counting the number of cells using Luna™ Automated Cell Counter, cells were plated into 96-well assay plates at 50 μL per well. The cells cultured for 24 hours were treated with the test substances in accordance with the concentration for 1 hour, and then the supernatant was collected and subjected to ELISA assay. In the ELISA assay, the absorbance at 450 nm (OD450 nm) was measured using Flexstation 3. The ability of each test substance to inhibit TNF-α secretion (IC50) and its inhibition at a concentration of 5 uM are shown in Table 1 below.
Background: ELISA stands for enzyme-linked immunosorbent assay.

Where a name gives a salt, the structure may show the parent alone.

In general, inhibition refers to the change of the read-out against control, counted positive when it falls. What is called IC50 is the concentration that gives 50% inhibition.

hResistin, sequence (Q9HD89 19-108): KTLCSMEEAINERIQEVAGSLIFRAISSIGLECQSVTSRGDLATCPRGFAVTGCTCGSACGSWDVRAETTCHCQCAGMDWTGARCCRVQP

With `O=C([C@@H]1CCCN1)N1CCC(c2nnc(-c3ccc(Cl)cc3)c3ccccc23)CC1` [Example 62, (S)-(4-(4-(4-chlorophenyl)phthalazin-1-yl)piperidin-1-yl)(pyrrolidin-2-yl)methanone hydrochloride], the inhibition at 5 µM worked out at 24.8%.

`CNC1CCN(c2nnc(-c3ccc(Cl)cc3)c3ccc(Cl)cc23)C1` (stereo not drawn) [Example 89, 1-(7-chloro-4-(4-chlorophenyl)phthalazin-1-yl)-N-methylpyrrolidin-3-amine hydrochloride]: 5 µM produced 77.9% inhibition and the IC50 came to 1.8 µM.

The molecule `CNC1CCN(c2nnc(Cc3ccc(Cl)cc3)c3ccccc23)C1` (stereo not drawn) [Example 98, 1-(4-(4-chlorobenzyl)phthalazin-1-yl)-N-methylpyrrolidin-3-amine hydrochloride] showed an inhibition at 5 µM of 3.9%.

As for `CC(C)[C@H](N)C(=O)N1CCN(c2nnc(-c3ccc(Cl)cc3)c3ccccc23)CC1` [Example 47, (S)-2-amino-1-(4-(4-(4-chlorophenyl)phthalazin-1-yl)piperazin-1-yl)-3-methylbutan-1-one hydrochloride], the inhibition at 5 µM was 87.1% and the IC50 was determined as 0.7 µM.
